Measurements published in patent publication US20070191451A1, “USE OF BENZO-HETEROARYL SULFAMIDE DERIVATIVES AS NEUROPROTECTIVE AGENTS” (priority 2006, published 2007).

What was measured:
Rat Hippocampal Cultures = test: Cell Titer Glo/Cell Viability in vitro assay, rat hippocampal cultures, insult with 150 μM H2O2; type: cell-based; details: for Cell Titer Glo/Cell Viability / Cell Titer Glo/Cell Viability, Mean: insult with 150 μM H2O2; for Cell Titer Glo/Cell Viability, Mean: mean of 3 plates, n=9
Experimental: (§1) The assay was run according to the procedure listed within the insert of the kit purchased from Promega (see attachment at the end of the application).
(§2) Cell cultures were prepared as follows. Dissociated hippocampal and cortical cell cultures were established from embryonic day 18 rat fetuses. The fetuses were removed via cesarean section from pregnant dams (Harlan Sprague-Dawley) anesthetized with halothane according to the AVMA Panel on Euthanasia. Pups were decapitated and the brains were removed and placed in Hank's Balanced Salt solution (1×HBSS; Gibco, Rockville, Md.). The hippocampi and cortices were dissected out and pooled according to tissue-type. Tissue was trypsinized for 15 min (1 mg/ml trypsin-HBSS; Worthington, Lakewood, N.J.), rinsed with fresh HBSS, incubated in trypsin inhibitor (1 mg/ml; Sigma, St. Louis, Mo.) for 5 min, rinsed again with fresh HBSS and then triturated in 1 ml fresh HBSS with a fire-polished glass pipette. Dissociated cells were seeded at 10,000 cells/well onto poly-D-lysine coated 96-well plates (BD BioScience, Bedford, Mass.) containing 100 ul/well Eagle's Minimal Essential Media (MEM; Gibco) supplemented with 26 mM NaHCO3 (Sigma), 40 mM glucose (Sigma), 20 mM KCl (Sigma), 1 mM sodium pyruvate (Sigma), 10% (v/v) heat-inactivated fetal bovine serum (Hyclone, Logan, Utah), and 0.001% gentamicin sulfate (Sigma) (pH 7.4). Serum-free cultures were plated and maintained in Neurobasal medium+B27 supplement (Gibco). Cells were allowed to attach for 24h in a humidified 37° C. 5% CO2 incubator before experimental treatment.
(§3) Test compounds were prepared as follows: A 10 mM stock in DMSO of each compound was diluted 1:50 in DPBS rendering a final stock of 200 μM. […] Equal amounts of vehicle or diluted compound were added to each culture well.
(§4) A 30% stock solution of hydrogen peroxide (H2O2; Sigma) was diluted with DPBS 1:100 to yield a […] stock. Five microliters of vehicle or H2O2 stock solution was added to each 100 ul culture well to yield a final concentration of 150 uM.
(§5) Note that in the data listed below, each plate was run in triplicate for a total of n=9.

[1] = tested on: Rat Cerebral Cortical Cultures; test: Cell Titer Glo/Cell Viability in vitro assay, rat cerebral cortical cultures, insult with 150 μM H2O2; type: cell-based; details: for Cell Titer Glo/Cell Viability, Mean: mean of 3 plates
Experimental: as §1, §2, §3, §4, §5

[2] = compound 0.1 μM, Plate 1 (run in triplicate)
[3] = compound 0.1 μM, Plate 2 (run in triplicate)
[4] = compound 0.1 μM, Plate 3 (run in triplicate)
[5] = compound 1 μM, Plate 1 (run in triplicate)
[6] = compound 1 μM, Plate 2 (run in triplicate)
[7] = compound 1 μM, Plate 3 (run in triplicate)
[8] = compound 10 μM, Plate 1 (run in triplicate)
[9] = compound 10 μM, Plate 2 (run in triplicate)
[10] = compound 10 μM, Plate 3 (run in triplicate)

**Q.** `NS(=O)(=O)NCc1csc2ccccc12` [Compound #1, N-(benzo[b]thien-3-ylmethyl)-sulfamide] was tested. Which “protecting neurons from death and/or damage from oxidative stress or oxidative injury” value (Rat Hippocampal Cultures; conclusion in words from the data of Tables 4 and 5, H2O2 insult) did it give?
**A.** effective at protecting neurons from death and/or damage

**Q.** What about the “Cell Titer Glo/Cell Viability” value (Rat Hippocampal Cultures; [2]) of the same compound?
**A.** 28

**Q.** And the “Cell Titer Glo/Cell Viability” value (Rat Hippocampal Cultures; [3])?
**A.** 16

**Q.** What about the “Cell Titer Glo/Cell Viability” value (Rat Hippocampal Cultures; [4]) of the same compound?
**A.** 17

**Q.** What about the “Cell Titer Glo/Cell Viability, Mean” value (Rat Hippocampal Cultures; compound 0.1 μM) of the same compound?
**A.** 20

**Q.** And the “Cell Titer Glo/Cell Viability” value (Rat Hippocampal Cultures; [5])?
**A.** 30

**Q.** What about the “Cell Titer Glo/Cell Viability” value (Rat Hippocampal Cultures; [6]) of the same compound?
**A.** 12

**Q.** What about the “Cell Titer Glo/Cell Viability” value (Rat Hippocampal Cultures; [7]) of the same compound?
**A.** 13

**Q.** What about the “Cell Titer Glo/Cell Viability, Mean” value (Rat Hippocampal Cultures; compound 1 μM) of the same compound?
**A.** 18

**Q.** And the “Cell Titer Glo/Cell Viability” value (Rat Hippocampal Cultures; [8])?
**A.** 41

**Q.** What about the “Cell Titer Glo/Cell Viability” value (Rat Hippocampal Cultures; [9]) of the same compound?
**A.** 46

**Q.** And the “Cell Titer Glo/Cell Viability” value (Rat Hippocampal Cultures; [10])?
**A.** 45

**Q.** What about the “Cell Titer Glo/Cell Viability, Mean” value (Rat Hippocampal Cultures; compound 10 μM, **p < 0.01 (Kruskal-Wallis, Dunn's post-hoc)) of the same compound?
**A.** 44**

**Q.** `NS(=O)(=O)NCc1csc2ccc(F)cc12` [Compound #8, N-[(5-fluorobenzo[b]thien-3-yl)methyl]-sulfamide] was tested. Which “Cell Titer Glo/Cell Viability” value [1, 2] did it give?
**A.** 16

**Q.** What about the “Cell Titer Glo/Cell Viability” value [1, 3] of the same compound?
**A.** 43

**Q.** And the “Cell Titer Glo/Cell Viability” value [1, 4]?
**A.** 19

**Q.** What about the “Cell Titer Glo/Cell Viability, Mean” value ([1]; compound 0.1 μM, n=9) of the same compound?
**A.** 26

**Q.** What about the “Cell Titer Glo/Cell Viability” value [1, 5] of the same compound?
**A.** 13

**Q.** And the “Cell Titer Glo/Cell Viability” value [1, 6]?
**A.** 24

**Q.** And the “Cell Titer Glo/Cell Viability” value [1, 7]?
**A.** 12

**Q.** What about the “Cell Titer Glo/Cell Viability, Mean” value ([1]; compound 1 μM, n=9) of the same compound?
**A.** 16

**Q.** And the “Cell Titer Glo/Cell Viability” value [1, 8]?
**A.** 22

**Q.** What about the “Cell Titer Glo/Cell Viability” value [1, 9] of the same compound?
**A.** 27

**Q.** And the “Cell Titer Glo/Cell Viability” value [1, 10]?
**A.** 30

**Q.** And the “Cell Titer Glo/Cell Viability, Mean” value ([1]; compound 10 μM, n=9, *p < 0.05 (Kruskal-Wallis, Dunn's post-hoc))?
**A.** 26*
